Laboratory results reported in ChEMBL document CHEMBL3044911, “Effect of distribution and concentration of topically applied neonicotinoid insecticides in buffalograss, Buchloe dactyloides, leaf tissues on the differential mortality of Blissus occiduus under field conditions” (Pest Manag Sci, 2013).
Activity calls are given as the source filed them. No cut-off for these calls is given here.

What was measured:
Lygaeidae [1] = assay: Insecticidal activity against first generation Blissus occiduus in buffalograss under field condition assessed as reduction in number at 9.6 kg/ha measured 3 days after treatment; type: functional, organism-based
Lygaeidae [2] = assay: Insecticidal activity against second generation Blissus occiduus in buffalograss under field condition assessed as reduction in number at 9.6 kg/ha measured 3 days after treatment; type: functional, organism-based
Lygaeidae [3] = assay: Insecticidal activity against first generation Blissus occiduus in buffalograss under field condition assessed as reduction in number at 9.6 kg/ha measured 106 days after treatment; type: functional, organism-based
Lygaeidae [4] = assay: Insecticidal activity against second generation Blissus occiduus in buffalograss under field condition assessed as reduction in number at 9.6 kg/ha measured 55 days after treatment; type: functional, organism-based
Lygaeidae [5] = assay: Insecticidal activity against second generation Blissus occiduus in buffalograss under field condition assessed as reduction in number at 9.6 kg/ha measured 28 days after treatment; type: functional, organism-based
Lygaeidae [6] = assay: Insecticidal activity against first generation Blissus occiduus in buffalograss under field condition assessed as reduction in number at 9.6 kg/ha measured 8 days after treatment; type: functional, organism-based
Lygaeidae [7] = assay: Insecticidal activity against second generation Blissus occiduus in buffalograss under field condition assessed as reduction in number at 9.6 kg/ha measured 7 days after treatment; type: functional, organism-based
Urochloa mutica [8] = assay: Drug level in […] (buffalo grass) measured per gram of fresh weight at 19.1 kg/ha measured 28 days after treatment; type: ADME, organism-based; settings: in vivo, 672 h
Urochloa mutica [9] = assay: Drug level in […] (buffalo grass) measured per gram of fresh weight at 19.1 kg/ha measured 14 days after treatment; type: ADME, organism-based; settings: in vivo, 336 h
Lygaeidae [10] = assay: Insecticidal activity against first generation Blissus occiduus in buffalograss under field condition assessed as reduction in number at 89.7 kg/ha measured 8 days after treatment; type: functional, organism-based
Lygaeidae [11] = assay: Insecticidal activity against first generation Blissus occiduus in buffalograss under field condition assessed as reduction in number at 89.7 kg/ha measured 3 days after treatment; type: functional, organism-based
Lygaeidae [12] = assay: Insecticidal activity against second generation Blissus occiduus in buffalograss under field condition assessed as reduction in number at 89.7 kg/ha measured 7 days after treatment; type: functional, organism-based
Lygaeidae [13] = assay: Insecticidal activity against second generation Blissus occiduus in buffalograss under field condition assessed as reduction in number at 89.7 kg/ha measured 3 days after treatment; type: functional, organism-based
Urochloa mutica [14] = assay: Drug level in […] (buffalo grass) measured per gram of fresh weight at 19.1 kg/ha measured 7 days after treatment; type: ADME, organism-based; settings: in vivo, 168 h
Urochloa mutica [15] = assay: Drug level in […] (buffalo grass) measured per gram of fresh weight at 19.1 kg/ha measured 3 days after treatment; type: ADME, organism-based; settings: in vivo, 72 h
Lygaeidae [16] = assay: Insecticidal activity against second generation Blissus occiduus in buffalograss under field condition assessed as reduction in number at 89.7 kg/ha measured 55 days after treatment; type: functional, organism-based
Lygaeidae [17] = assay: Insecticidal activity against first generation Blissus occiduus in buffalograss under field condition assessed as reduction in number at 89.7 kg/ha measured 106 days after treatment; type: functional, organism-based
Lygaeidae [18] = assay: Insecticidal activity against second generation Blissus occiduus in buffalograss under field condition assessed as reduction in number at 89.7 kg/ha measured 28 days after treatment; type: functional, organism-based
Urochloa mutica [19] = assay: Drug level in […] (buffalo grass) measured per gram of fresh weight at 89.7 kg/ha measured 28 days after treatment; type: ADME, organism-based; settings: in vivo, 672 h
Urochloa mutica [20] = assay: Drug level in […] (buffalo grass) measured per gram of fresh weight at 89.7 kg/ha measured 14 days after treatment; type: ADME, organism-based; settings: in vivo, 336 h
Urochloa mutica [21] = assay: Drug level in […] (buffalo grass) measured per gram of fresh weight at 89.7 kg/ha measured 7 days after treatment; type: ADME, organism-based; settings: in vivo, 168 h
Urochloa mutica [22] = assay: Drug level in […] (buffalo grass) measured per gram of fresh weight at 89.7 kg/ha measured 3 days after treatment; type: ADME, organism-based; settings: in vivo, 72 h
Urochloa mutica [23] = assay: Drug level in […] (buffalo grass) measured per gram of fresh weight at 9.6 kg/ha measured 14 days after treatment; type: ADME, organism-based; settings: in vivo, 336 h
Lygaeidae [24] = assay: Insecticidal activity against first generation Blissus occiduus in buffalograss under field condition assessed as reduction in number at 19.1 kg/ha measured 8 days after treatment; type: functional, organism-based
Lygaeidae [25] = assay: Insecticidal activity against first generation Blissus occiduus in buffalograss under field condition assessed as reduction in number at 19.1 kg/ha measured 3 days after treatment; type: functional, organism-based
Lygaeidae [26] = assay: Insecticidal activity against second generation Blissus occiduus in buffalograss under field condition assessed as reduction in number at 19.1 kg/ha measured 7 days after treatment; type: functional, organism-based
Lygaeidae [27] = assay: Insecticidal activity against second generation Blissus occiduus in buffalograss under field condition assessed as reduction in number at 19.1 kg/ha measured 3 days after treatment; type: functional, organism-based
Lygaeidae [28] = assay: Insecticidal activity against first generation Blissus occiduus in buffalograss under field condition assessed as reduction in number at 19.1 kg/ha measured 106 days after treatment; type: functional, organism-based
Urochloa mutica [29] = assay: Drug level in […] (buffalo grass) measured per gram of fresh weight at 9.6 kg/ha measured 7 days after treatment; type: ADME, organism-based; settings: in vivo, other, 168 h
Urochloa mutica [30] = assay: Drug level in […] (buffalo grass) measured per gram of fresh weight at 9.6 kg/ha measured 3 days after treatment; type: ADME, organism-based; settings: in vivo, 72 h
Lygaeidae [31] = assay: Insecticidal activity against second generation Blissus occiduus in buffalograss under field condition assessed as reduction in number at 19.1 kg/ha measured 55 days after treatment; type: functional, organism-based
Lygaeidae [32] = assay: Insecticidal activity against second generation Blissus occiduus in buffalograss under field condition assessed as reduction in number at 19.1 kg/ha measured 28 days after treatment; type: functional, organism-based

In the case of O=[N+]([O-])/N=C1\NCCN1Cc1ccc(Cl)nc1, the Activity (Lygaeidae [1]) was “Active”, the Activity (Lygaeidae [2]) was “inactive” and the Activity (Lygaeidae [3]) was “inactive”. The Activity (Lygaeidae [4]) was “Active”, the Activity (Lygaeidae [5]) was “inactive” and the Activity (Lygaeidae [6]) was “Active”. For the same compound, the Activity (Lygaeidae [7]) was “Active”.
With CN/C(=N\[N+](=O)[O-])NCc1cnc(Cl)s1 [CLOTHIANIDINE] the drug content (Urochloa mutica [8]) was 0.19 µg/g, the drug content (Urochloa mutica [9]) was 0.66 µg/g and the Activity (Lygaeidae [10]) was “Active”. For the same compound, the Activity (Lygaeidae [11]) was “Active”, the Activity (Lygaeidae [12]) was “Active” and the Activity (Lygaeidae [13]) was “Active”. The Drug uptake (Urochloa mutica [14]) was 1.56 µg/g, the drug content (Urochloa mutica [15]) was 6.48 µg/g and the Activity (Lygaeidae [16]) was “Active”. The Activity (Lygaeidae [17]) was “Active” and the Activity (Lygaeidae [18]) was “Active”.
With O=[N+]([O-])NC1=NCCN1Cc1ccc(Cl)nc1 [IMIDACLOPRID] the drug content (Urochloa mutica [19]) was 0.2 µg/g, the drug content (Urochloa mutica [20]) was 0.77 µg/g and the drug content (Urochloa mutica [21]) was 3.25 µg/g. The drug content (Urochloa mutica [22]) was 14.2 µg/g.
CN1COCN(Cc2cnc(Cl)s2)/C1=N\[N+](=O)[O-] [THIAMETHOXAM] was tested, and the drug content (Urochloa mutica [23]) was 0.16 µg/g, the Activity (Lygaeidae [24]) was “Active” and the Activity (Lygaeidae [25]) was “Active”. For the same compound, the Activity (Lygaeidae [26]) was “Active”, the Activity (Lygaeidae [27]) was “inactive” and the Activity (Lygaeidae [28]) was “inactive”. For the same compound, the drug content (Urochloa mutica [29]) was 0.6 µg/g, the drug content (Urochloa mutica [30]) was 6.2 µg/g and the Activity (Lygaeidae [31]) was “Active”. The Activity (Lygaeidae [32]) was “Active”.
